Consider 19 molecules from ChEMBL document CHEMBL1201862, “PubChem BioAssay data set” (2004).

In experiment [1] the target is G-protein coupled receptor 55 (Homo sapiens, UniProt Q9Y2T6). Nature of the experiment: GPR55 antagonists blocking LPI-driven arrestin recruitment, primary screen, imaging, U2OS, beta-arrestin-GFP, LPI agonist (AID 2013).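 Note: antagonist potency measured as reduced agonist-driven arrestin aggregation.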 It counts as functional.
Experiment [2] in a line: inhibitors of intracellular T. cruzi replication, confirmation, NIH3T3 host cells, beta-gal luminescence (AID 2044).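 Note: intracellular parasites grown in NIH/3T3 mouse fibroblasts as host cells; luminescent beta-galactosidase reporter signal from transgenic T. cruzi replicating inside host cells; inhibitors lower the luminescence signal.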 The class given is functional, cell-based.
The nature of experiment [3]: cytotoxicity toward NIH3T3 fibroblasts, dose response, counter-screen, cell-based, ATP luminescence, mouse fibroblasts (AID 2010).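 Note: cells exposed to compound for about 90 hours before reading.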 The class given is functional. (A counterscreen serves to expose hits that act by an unwanted route or on another target.)
In experiment [4] the target is T1, Bcl-2-related protein A1 (Mus musculus, UniProt Q07440).
T1 sequence (Q07440 whole entry): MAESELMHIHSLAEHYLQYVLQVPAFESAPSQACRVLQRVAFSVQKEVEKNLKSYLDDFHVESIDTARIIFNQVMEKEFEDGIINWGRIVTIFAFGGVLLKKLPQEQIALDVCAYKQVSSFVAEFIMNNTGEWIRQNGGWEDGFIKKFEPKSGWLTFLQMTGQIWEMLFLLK
The experiment in a line: Bfl-1 inhibitors blocking BH3 peptide binding, confirmation, biochemical, TR-FRET, mouse Bfl-1 (AID 621).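 Note: TR-FRET binding of GST-Bfl-1 to FITC-labelled Bid peptide via terbium antibody.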 Background: TR-FRET usually uses a lanthanide donor and a delayed reading to cut background.

Experiment [5] deals with T1, Bcl-2-related protein A1. Nature of the experiment: Bfl-1 binding inhibitors, SAR follow-up, biochemical, fluorescence polarization (AID 1070).
Experiment [6] addresses Glyceraldehyde-3-phosphate dehydrogenase (Homo sapiens, UniProt P04406).
In experiment [7] the target is T2, Short transient receptor potential channel 4 (Mus musculus, UniProt Q9QUQ5).
T2 sequence (Q9QUQ5 whole entry): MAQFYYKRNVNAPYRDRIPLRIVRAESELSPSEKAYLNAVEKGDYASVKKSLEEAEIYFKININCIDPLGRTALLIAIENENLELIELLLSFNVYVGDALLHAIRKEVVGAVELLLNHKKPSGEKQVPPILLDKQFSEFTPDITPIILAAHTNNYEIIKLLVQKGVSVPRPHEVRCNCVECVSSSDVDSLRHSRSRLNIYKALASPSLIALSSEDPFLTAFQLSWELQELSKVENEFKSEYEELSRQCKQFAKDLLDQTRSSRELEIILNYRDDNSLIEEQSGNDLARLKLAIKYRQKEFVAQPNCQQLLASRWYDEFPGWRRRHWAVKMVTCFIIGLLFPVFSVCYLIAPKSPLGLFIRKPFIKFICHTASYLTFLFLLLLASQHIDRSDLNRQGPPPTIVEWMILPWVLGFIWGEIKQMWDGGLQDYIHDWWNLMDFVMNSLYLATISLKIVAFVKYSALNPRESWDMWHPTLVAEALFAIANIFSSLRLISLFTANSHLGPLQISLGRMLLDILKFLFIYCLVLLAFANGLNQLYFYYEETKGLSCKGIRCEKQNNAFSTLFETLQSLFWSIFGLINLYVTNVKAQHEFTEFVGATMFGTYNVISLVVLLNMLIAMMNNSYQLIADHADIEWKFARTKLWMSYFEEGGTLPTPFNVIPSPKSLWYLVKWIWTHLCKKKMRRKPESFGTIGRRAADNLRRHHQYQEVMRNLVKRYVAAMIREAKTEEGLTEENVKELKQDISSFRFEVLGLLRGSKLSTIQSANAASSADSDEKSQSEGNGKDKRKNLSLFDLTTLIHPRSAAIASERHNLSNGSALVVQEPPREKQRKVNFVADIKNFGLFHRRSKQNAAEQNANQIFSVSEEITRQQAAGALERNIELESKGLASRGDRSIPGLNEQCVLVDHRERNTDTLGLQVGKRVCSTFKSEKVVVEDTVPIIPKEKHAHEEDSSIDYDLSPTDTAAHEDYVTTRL
The experiment in a line: mouse TRPC4 channel inhibitors, dose response, cell-based, HEK293 TRPC4/mu-opioid, Fluo-4 calcium (AID 434942).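 Note: potency of inhibitors blocking the TRPC4 calcium response.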 The class given is functional.

Experiment [8] concerns the target T3, Mannose-6-phosphate isomerase (Homo sapiens, UniProt P34949).
T3 sequence (P34949 whole entry): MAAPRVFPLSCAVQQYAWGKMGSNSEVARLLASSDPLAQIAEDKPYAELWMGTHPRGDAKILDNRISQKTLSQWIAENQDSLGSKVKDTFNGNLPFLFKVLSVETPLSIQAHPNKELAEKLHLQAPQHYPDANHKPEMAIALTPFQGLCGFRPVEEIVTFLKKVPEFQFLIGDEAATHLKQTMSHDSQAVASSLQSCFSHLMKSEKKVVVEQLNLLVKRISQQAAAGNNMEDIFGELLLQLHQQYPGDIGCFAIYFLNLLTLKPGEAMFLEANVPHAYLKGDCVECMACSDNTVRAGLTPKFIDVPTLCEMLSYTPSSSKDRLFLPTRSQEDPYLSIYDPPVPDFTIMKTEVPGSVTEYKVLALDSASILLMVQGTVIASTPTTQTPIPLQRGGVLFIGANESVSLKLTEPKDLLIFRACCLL
Nature of the experiment: human PMI inhibitors, high substrate, primary screen, biochemical, fluorescence intensity, high mannose 6-phosphate (AID 1220).

A short description of experiment [9]: cytotoxicity in HPDE-C7 cells, cell-based, fluorescence, HTS (AID 430). The class given is functional. Conditions: Homo sapiens.
A short description of experiment [10]: cytotoxicity in KRAS-transformed pancreatic duct cells, primary screen, cell-based, fluorescence, HTS (AID 431).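 Note: cell line used: HPDE-C7K.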 The class given is functional. Conditions: Homo sapiens.
Experiment [11] concerns the target T4, SUMO-activating enzyme (Homo sapiens, UniProt Q9UBT2). The experiment in a line: SUMOylation inhibitor hit validation, confirmation, SUMOylation inhibitor project, biochemical, AlphaScreen (AID 2018). It counts as functional. On the technique in general: Bead proximity is the source of the signal in Alpha formats.
Experiment [12] deals with T4, SUMO-activating enzyme. Nature of the experiment: inhibitors of in vitro SUMOylation cascade, primary screen, biochemical, HTRF, uHTS (AID 2006). The class given is protein-complex assay.
A short description of another experiment: cells. It counts as functional.
The nature of experiment [13]: A Cell Based Secondary Assay To Explore Cytotoxicity of Compounds that Sensitize Mycobacterium Tuberculosis to Beta-Lactam Antibiotics. It counts as functional.
Experiment [14] concerns the target Luciferin 4-monooxygenase (Photinus pyralis, UniProt P08659). Nature of the experiment: firefly luciferase enzyme inhibitors, dose response, biochemical, luminescence (AID 1891).
The target of a further experiment is T5, CAAX prenyl protease 2 (Saccharomyces cerevisiae S288c, UniProt Q03530).
T5 sequence (Q03530 whole entry): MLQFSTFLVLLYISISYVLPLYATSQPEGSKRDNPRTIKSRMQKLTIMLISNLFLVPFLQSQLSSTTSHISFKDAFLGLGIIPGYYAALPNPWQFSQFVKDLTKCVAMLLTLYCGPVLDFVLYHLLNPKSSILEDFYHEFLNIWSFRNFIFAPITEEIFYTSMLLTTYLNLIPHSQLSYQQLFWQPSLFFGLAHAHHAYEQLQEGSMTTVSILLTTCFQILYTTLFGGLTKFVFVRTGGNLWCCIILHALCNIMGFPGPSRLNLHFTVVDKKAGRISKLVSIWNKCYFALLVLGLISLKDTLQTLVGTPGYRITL
The class given is biochemical.

The nature of experiment [15]: HepG2 cell cytotoxicity, dose response, cytotoxicity control for Shn3 inhibitor project, CellTiter-Glo, cherry-picked (AID 624134). The class given is functional, cell-based.
For experiment [16], the target named is T6, RNA-binding protein pos-1 (Caenorhabditis elegans, UniProt G5EF15).
T6 sequence (G5EF15 whole entry): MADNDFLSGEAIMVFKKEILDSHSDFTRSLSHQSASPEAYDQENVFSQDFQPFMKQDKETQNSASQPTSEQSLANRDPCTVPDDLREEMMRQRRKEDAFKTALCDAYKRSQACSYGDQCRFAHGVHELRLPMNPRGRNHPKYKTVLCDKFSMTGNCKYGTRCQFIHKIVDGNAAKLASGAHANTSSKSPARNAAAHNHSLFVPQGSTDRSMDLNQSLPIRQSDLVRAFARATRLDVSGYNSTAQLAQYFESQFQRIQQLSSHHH
Nature of the experiment: inhibitors of POS-1/mex-3 RNA binding, dose response, biochemical, fluorescence polarization (AID 1964).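 Note: purified POS-1 fused to maltose binding protein made in E. coli; potency of compounds blocking POS-1 binding to fluorescent RNA.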

Experiment [17] in a line: Luminescence Cell-Based Dose Confirmation HTS to Identify Inhibitors of Platelet Dense Granule Release. [Related pubchem assays: 1663 (Primary HTS), 1678 (Summary of Project)]. It counts as functional.
Experiment [18] can be described thus: Shn3 3'UTR reporter inhibitors, dose response, cell-based, Clone20 osteoblasts, firefly luciferase, cherry-picked (AID 624132).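 Note: firefly luciferase luminescence from reporter carrying the Shn3 3'UTR in osteoblasts.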 It counts as functional.
Experiment [19] addresses T7, Zinc finger protein mex-5 (Caenorhabditis elegans, UniProt Q9XUB2).
T7 sequence (Q9XUB2 whole entry): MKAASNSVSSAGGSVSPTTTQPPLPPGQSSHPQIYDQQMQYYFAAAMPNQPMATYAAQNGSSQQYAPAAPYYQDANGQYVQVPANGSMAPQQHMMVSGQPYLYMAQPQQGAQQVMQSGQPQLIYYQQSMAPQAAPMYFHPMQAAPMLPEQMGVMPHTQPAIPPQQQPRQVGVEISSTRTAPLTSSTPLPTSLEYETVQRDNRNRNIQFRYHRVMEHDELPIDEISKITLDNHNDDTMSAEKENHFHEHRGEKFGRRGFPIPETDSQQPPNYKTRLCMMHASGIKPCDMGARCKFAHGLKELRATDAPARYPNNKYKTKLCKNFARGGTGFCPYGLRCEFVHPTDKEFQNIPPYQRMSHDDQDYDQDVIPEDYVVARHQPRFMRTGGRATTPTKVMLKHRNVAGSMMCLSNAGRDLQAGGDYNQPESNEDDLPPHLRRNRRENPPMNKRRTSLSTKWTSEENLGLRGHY
Nature of the experiment: MEX-5/TCR-2 RNA interaction inhibitors, dose response, biochemical, C. elegans, fluorescence polarization (AID 1960).

Active and inactive are the calls of the source.

Chain of G-protein coupled receptor 55 (Q9Y2T6 whole entry): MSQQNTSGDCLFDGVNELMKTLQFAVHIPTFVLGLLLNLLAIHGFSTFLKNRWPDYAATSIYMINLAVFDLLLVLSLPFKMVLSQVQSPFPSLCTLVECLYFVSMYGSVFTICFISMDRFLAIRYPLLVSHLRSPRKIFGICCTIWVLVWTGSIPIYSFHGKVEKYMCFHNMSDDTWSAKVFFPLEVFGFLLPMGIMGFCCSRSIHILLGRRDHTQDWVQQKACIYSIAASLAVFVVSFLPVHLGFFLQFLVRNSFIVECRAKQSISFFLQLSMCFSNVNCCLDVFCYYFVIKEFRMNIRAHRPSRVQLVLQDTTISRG
Chain of Glyceraldehyde-3-phosphate dehydrogenase (P04406 whole entry): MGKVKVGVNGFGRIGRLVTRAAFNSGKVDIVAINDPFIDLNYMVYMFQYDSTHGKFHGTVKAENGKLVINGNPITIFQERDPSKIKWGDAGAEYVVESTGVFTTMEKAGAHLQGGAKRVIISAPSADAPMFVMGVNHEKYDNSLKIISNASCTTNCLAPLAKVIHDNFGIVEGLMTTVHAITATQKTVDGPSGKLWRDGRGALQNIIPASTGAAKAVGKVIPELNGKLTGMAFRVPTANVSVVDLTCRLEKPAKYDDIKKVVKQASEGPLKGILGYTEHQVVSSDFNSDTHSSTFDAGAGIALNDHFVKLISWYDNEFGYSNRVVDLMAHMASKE
Chain of Luciferin 4-monooxygenase (P08659 whole entry): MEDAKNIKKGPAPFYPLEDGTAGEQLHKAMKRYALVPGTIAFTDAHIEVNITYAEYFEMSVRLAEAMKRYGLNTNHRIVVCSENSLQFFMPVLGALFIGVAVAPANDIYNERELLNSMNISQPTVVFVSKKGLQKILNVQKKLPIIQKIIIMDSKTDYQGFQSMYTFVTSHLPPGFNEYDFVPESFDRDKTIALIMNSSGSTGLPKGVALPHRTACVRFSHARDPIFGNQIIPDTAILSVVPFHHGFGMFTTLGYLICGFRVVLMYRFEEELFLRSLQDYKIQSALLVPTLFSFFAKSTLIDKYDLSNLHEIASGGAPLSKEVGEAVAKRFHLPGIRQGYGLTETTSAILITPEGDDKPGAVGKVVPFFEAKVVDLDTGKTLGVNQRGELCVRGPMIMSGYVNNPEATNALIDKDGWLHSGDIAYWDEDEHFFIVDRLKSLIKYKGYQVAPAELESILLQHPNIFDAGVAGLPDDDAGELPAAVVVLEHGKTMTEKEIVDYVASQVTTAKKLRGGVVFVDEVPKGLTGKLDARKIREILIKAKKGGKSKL
T4 sequence (Q9UBE0 whole entry): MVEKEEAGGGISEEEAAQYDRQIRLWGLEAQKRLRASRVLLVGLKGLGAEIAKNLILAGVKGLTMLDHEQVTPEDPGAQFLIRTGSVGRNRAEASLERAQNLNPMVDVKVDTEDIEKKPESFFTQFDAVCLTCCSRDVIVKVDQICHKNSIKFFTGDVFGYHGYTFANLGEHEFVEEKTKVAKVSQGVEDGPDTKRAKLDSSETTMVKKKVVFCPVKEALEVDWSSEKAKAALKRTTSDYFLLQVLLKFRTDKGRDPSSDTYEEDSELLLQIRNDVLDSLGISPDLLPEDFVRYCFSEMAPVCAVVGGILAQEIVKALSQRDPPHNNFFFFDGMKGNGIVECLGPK
T4 sequence (Q9UBT2 whole entry): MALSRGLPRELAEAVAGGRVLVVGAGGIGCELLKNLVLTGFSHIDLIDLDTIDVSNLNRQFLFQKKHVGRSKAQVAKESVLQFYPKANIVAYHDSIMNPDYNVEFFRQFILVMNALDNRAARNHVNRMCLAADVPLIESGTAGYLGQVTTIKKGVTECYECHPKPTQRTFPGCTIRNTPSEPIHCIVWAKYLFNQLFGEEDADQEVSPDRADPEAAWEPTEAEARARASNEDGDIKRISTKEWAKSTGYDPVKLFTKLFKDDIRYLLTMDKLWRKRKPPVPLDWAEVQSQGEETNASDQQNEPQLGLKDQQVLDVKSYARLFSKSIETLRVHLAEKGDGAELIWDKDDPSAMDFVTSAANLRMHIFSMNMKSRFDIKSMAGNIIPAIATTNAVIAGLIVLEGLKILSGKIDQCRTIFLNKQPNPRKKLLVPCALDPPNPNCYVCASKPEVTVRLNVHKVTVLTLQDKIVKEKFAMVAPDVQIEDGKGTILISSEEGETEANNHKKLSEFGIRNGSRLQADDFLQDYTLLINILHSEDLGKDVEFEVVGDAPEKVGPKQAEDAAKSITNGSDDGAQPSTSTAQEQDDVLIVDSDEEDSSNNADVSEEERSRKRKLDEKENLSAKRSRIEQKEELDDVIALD

In general, IC50 refers to the concentration at which inhibition is half-maximal. Turning to `CC(C)(C)n1nnnc1C(c1cccs1)N(Cc1ccccc1)Cc1cccnc1` (stereo not drawn), in [1], the IC50 was 7.73 µM (active).
For orientation: EC50 means the concentration that produces a half-maximal response. Take `O=C(CC12CC3CC(CC(C3)C1)C2)NC(=S)NCc1ccco1`: the IC50 in experiment [1] was 0.969 µM (active). Moreover, the results for the EC50 in experiment [2] and in experiment [3] were 2.29 µM (active) and > 60 µM (inconclusive), respectively.
`O=C1C(Cl)=C(Cl)C(=O)N1c1ccccc1Cl`: the IC50 was 3.64 µM (active) at Bcl-2-related protein A1 [4], 10.2 µM (active) at Bcl-2-related protein A1 [5] and > 100 µM (not active) in experiment [6].
As for `CC1CCN(CCOCCOc2ccccc2-c2ccccc2)CC1`, in experiment [7], the EC50 was 2.99 µM (active).
On to `O=C1C(Cl)=C(N2CCN(c3ccc(Cl)c(Cl)c3)CC2)C(=O)N1c1ccc(Cl)c(Cl)c1`, for which the IC50 on Bcl-2-related protein A1 [4] is 65.5 µM (active); at Bcl-2-related protein A1 [5] it was > 100 µM (not active); in experiment [6] it was > 100 µM (not active).
For `Cc1ccc(S(=O)(=O)N2CCN(c3nc(C)c4c(c3C#N)CC(C)(C)OC4)CC2)cc1`, the IC50 in experiment [1] is 10.9 µM (inactive).
As to `Oc1c(CN2CCOCC2)ccc2ccccc12`, the IC50 in experiment [8] is > 50 µM (not active).
In the case of `Fc1ccccc1CNCCC(Cc1ccccc1)c1ccc2c(c1)OCO2` (stereo not drawn), the EC50 in [7] was 13.3 µM (active).
On to `CC(C)(C)c1cc(CN2CCCC(O)C2)c(O)c(C(C)(C)C)c1` (stereo not drawn), for which the EC50 in [9] was 15.5 µM (active); in experiment [10], 14.9 µM (active).
Take `Cc1ccc(NC(=O)COc2ccc(/C=C3/NC(=O)NC3=O)cc2)cc1`: the IC50 was 19.2 µM (active) at SUMO-activating enzyme [11] and 17.1 µM (active) on SUMO-activating enzyme [12].
Consider `Cc1cccc(NCCC(=O)c2ccc([N+](=O)[O-])cc2)c1C`, for which the results for the IC50 (in experiment [8]; in the experiment “cells”) were > 50 µM (not active) and 18 µM (active), respectively.
For orientation: CC50 means the concentration at which the toxic effect on the cells reaches its halfway point. `COc1ccc(-n2cc(-c3ccccc3)c3c(NN4CCOCC4)ncnc32)cc1`: the CC50 in experiment [13] was > 40 µM (active).
Take `COCCNc1c2c(nc3ccccc13)CCC2`: the EC50 in [7] was 5.96 µM (active).
On to `N#CC1=C(N)NC(SCc2ccc(Cl)cc2)=C(C#N)C12CCCCC2`, for which the EC50 was 8.84 µM (active) in experiment [9] and 6.43 µM (active) in [10].
Take `COc1cc(CNc2ccc3[nH]c(=O)[nH]c3c2)ccc1OCC(=O)NC(C)(C)C`: the IC50 in [8] is given as > 50 µM (not active). Moreover, the EC50 in experiment [14] is reported as > 112 µM (not active).
Take `CCOC(=O)c1ccccc1NC(=O)C1COc2ccccc2O1` (stereo not drawn): in experiment [13], the CC50 is > 40 µM (active).
Take `Cc1ccc(NC2=C(Cl)C(=O)N(c3ccc(C)cc3)C2=O)cc1`: the IC50 on Bcl-2-related protein A1 [4] was 2.54 µM (active); at Bcl-2-related protein A1 [5], 1.7 µM (active); in experiment [6], > 100 µM (not active).
For orientation: AC50 means the concentration at which the activity in the assay is half-maximal. `CS(=O)(=O)c1ccc(C(=O)OCC(=O)N(CCc2ccccc2)Cc2ccccc2)cc1`: the AC50 on CAAX prenyl protease 2 is 7.85 µM (active).
Regarding `CN(C)c1ccc(/C=C/c2nc3ccccc3s2)cc1`, the CC50 in [13] is 25.3 µM (active). In addition, the AC50 is 25.6 µM (active) in experiment [15] and 0.494 µM (active) in [18]. In addition, the EC50 in [16] is > 300 µM (not active); in [14], 1.43 µM (active); in [17] it was 4.65 µM (active); in experiment [19], > 300 µM (not active).
